For orientation: EC50 means the concentration needed to bring the measured effect to its halfway point. Broadly, the IC50 is the concentration that inhibits the measured activity by half. For orientation: Kd means the equilibrium constant for the complex coming apart.

Several values for one entry are separate records, joined by “and”; a condition that tells them apart may be missing. Equal entries are not always repeated. Where two headings read alike, the source gives them in different places. Square brackets hold non-standard residues; d marks the D form. Peptide text beside a SMILES is read from it. * marks the point of attachment. ξ: configuration not given here. ξTic = O=C(O)C1Cc2ccccc2CN1; ξY = NC(Cc1ccc(O)cc1)C(=O)O; Heptanoyl = CCCCCCC(=O)*; Boc = CC(C)(C)OC(=O)*

Series [1] concerns TK^− VZV strain 07-1. Particulars: read-out: Antiviral activity EC50 TK^− VZV strain 07-1.; VZV in HEL cells; plaque formation reduced by 50%; 20 PFU.
A further series in a line: in vitro. Particulars: African green monkey.
The subject of series [2] is cytomegalovirus (HCMV) Davis strain. The following applies: read-out: Antiviral activity EC50 Davis strain; HCMV in HEL cells; plaque formation reduced by 50%; 100 PFU.
The test system of series [3] is cytomegalovirus (HCMV) AD-169 strain. The following applies: read-out: Antiviral activity EC50 AD-169 strain; HCMV in HEL cells; plaque formation reduced by 50%; 100 PFU.
For series [4], the system named is human embryonic lung (HEL) cells. As to the kind of experiment: Cytotoxicity, cell morphology (MCC), HEL cells. Format: cell-based.
Series [5] deals with TK^+ VZV strain OKA. Particulars: read-out: Antiviral activity EC50 TK^+ VZV strain OKA; VZV in HEL cells; plaque formation reduced by 50%; 20 PFU.
A further series addresses M^pro enzyme (Severe acute respiratory syndrome coronavirus 2, UniProt P0DTD1). The following applies: MM-GBSA, literature Di Micco et al. 2021; cited from earlier work.
Series [6] has as its system cytomegalovirus (HCMV) AD-169 strain. As to the kind of experiment: microbe, parasite or virus in culture. Particulars: Human betaherpesvirus 5, AD169, HEL, read-out: Antiviral activity EC50 AD-169 strain, HCMV in HEL cells; plaque formation reduced by 50%; 100 PFU.
Series [7] has as its target T1, SARS-COV-2 M^pro (3264-3569aa) (Severe acute respiratory syndrome coronavirus 2, UniProt P0DTD1).
T1 construct: SARS-COV-2 M^pro (3264-3569aa); purchased Proteros WTH_20_1
In words: FRET assay for TRIP on SARS-COV-2 main protease. Format: biochemical.

The test system of series [8] is SARS-COV-2 1074 # 2 strain.
Series [9] concerns Vero cells.
The subject of series [10] is SARS-COV-2 UK (NVDBB) strain.
Series [11] concerns Vero cells. Format: cell-based.
Series [12] relates to TK^+ VZV strain OKA. In words: microbe, parasite or virus in culture. Particulars: Human alphaherpesvirus 3, HEL, read-out: Antiviral activity EC50 TK^+ VZV strain OKA, VZV in HEL cells; plaque formation reduced by 50%; 20 PFU.
Series [13] concerns TK^− VZV strain 07-1. In words: microbe, parasite or virus in culture. The following applies: Human alphaherpesvirus 3, HEL, read-out: Antiviral activity EC50 TK^− VZV strain 07-1., VZV in HEL cells; plaque formation reduced by 50%; 20 PFU.
Series [14] concerns SARS-COV-2 1074 # 2 strain. In words: microbe, parasite or virus in culture. The following applies: Severe acute respiratory syndrome coronavirus 2, Vero, read-out: Antiviral activity EC50 1074 # 2 strain Vero cells.
The subject of series [15] is SARS-COV-2 UK (NVDBB) strain. In words: microbe, parasite or virus in culture. Particulars: Severe acute respiratory syndrome coronavirus 2, Vero, read-out: Antiviral activity EC50 UK (NVDBB) strain Vero cells.

Turning to `CC(C)(C)OC(=O)NCC(=O)N[C@H](Cc1ccccc1)C(=O)N[C@H](C=O)Cc1c[nH]cn1` [TRIP 43] (Boc-Gly-[dF]-His-aldehyde), the EC50 was more than 100 µM in the series on TK^− VZV strain 07-1 [1], more than 100 µM in [2], more than 20 µM in series [3] and more than 100 µM in the series with TK^+ VZV strain OKA [5]. This compound also showed a CC50 in “in vitro” of more than 100 µM. The “Cytotoxicity Cell morphology (MCC)” value is listed as 100 μM in series [4] (Table 3 (HCMV experiment)) and more than 100 μM in series [4] (Table 4 (VZV experiment)).
Take larazotide acetate [AT1001 acetate]: the “docking in the catalytic domain of the M^pro enzyme” value at M^pro enzyme is “docks extremely well”.
Turning to `Nc1ccn(C[C@@H](CO)OCP(=O)(O)O)c(=O)n1` [Cidofovir (CDV), Cidofovir, reference compound], the values for the EC50 in [6] and in [3] were 1.39 µM and 1.08 µM, respectively. For the same compound, the “Cytotoxicity Cell morphology (MCC)” value in series [4] (Table 3 (HCMV experiment)) came to 317 μM.
In series [7], `CC(=O)NCC(=O)NC(Cc1ccc(O)cc1)C(=O)N[C@H](C=O)Cc1c[nH]cn1` (stereo partly drawn) [TRIP 23] (Ac-Gly-[ξY]-His-aldehyde) displayed an IC50 of 198 µM.
In the case of `NC(=O)c1nc(F)cnc1O` [T-705, reference compound], in [8], the “Antiviral activity EC50 1074 # 2 strain Vero cells” value was 76.15 µg/mL and 81.79 µg/mL. Moreover, the “Cytotoxicity Cell growth (CC50)” value with Vero cells [9] was more than 200 µg/mL. In addition, the “Antiviral activity EC50 UK (NVDBB) strain Vero cells” value in [10] is 23.39 µg/mL. Further, the “Cytotoxicity Cell morphology (MCC)” value in the series with Vero cells [11] is given as more than 200 μg/ml.
As to `O=c1[nH]c(=O)n([C@H]2C[C@H](O)[C@@H](CO)O2)cc1/C=C/Br` [Brivudine (BVDU), Brivudine, reference compound], the concentration for a half-maximal effect (EC50) in the series on TK^+ VZV strain OKA [12] came to 0.27 µM; in the series with TK^− VZV strain 07-1 [1] it was 4.53 µM; with TK^− VZV strain 07-1 [13], 5.89 µM; in the series on TK^+ VZV strain OKA [5], 0.17 µM. Further, the “Cytotoxicity Cell morphology (MCC)” value in [4] (Table 4 (VZV experiment)) is recorded as more than 300.3 μM.
Consider `CC(=O)NCC(=O)N[C@@H](Cc1ccccc1)C(=O)N[C@H](Cc1c[nH]cn1)C(=O)NCC=O` [TRIP 42] (Ac-GF[dH]G-aldehyde), for which the 50% inhibitory concentration (IC50) in series [7] was more than 425 µM.
For `CCCCCCC(=O)NCC(=O)N[C@H](Cc1ccccc1)C(=O)N[C@H](C=O)Cc1c[nH]cn1` [TRIP 44] (Heptanoyl-Gly-[dF]-His-aldehyde), the concentration giving a half-maximal response (EC50) in the series on TK^− VZV strain 07-1 [1] was more than 100 µM; in [2], more than 100 µM; in [3] it was more than 20 µM; with TK^+ VZV strain OKA [5] it was more than 100 µM. The same compound registered a CC50 in the series “in vitro” of more than 100 µM. Also, the “Cytotoxicity Cell morphology (MCC)” value is listed as 100 μM in series [4] (Table 3 (HCMV experiment)) and more than 100 μM in series [4] (Table 4 (VZV experiment)).
Turning to `CCC(CC)COC(=O)[C@H](C)N[P@](=O)(OC[C@H]1O[C@@](C#N)(c2ccc3c(N)ncnn23)[C@H](O)[C@@H]1O)Oc1ccccc1` [Remdesivir], the figures for the EC50 in [8] (read-out: Antiviral activity EC50 1074 # 2 strain Vero cells), in [14] and in [15] were 1.17 µM, 1.01 µM and 0.19 µM, respectively. In addition, the CC50 in the series “in vitro” (Cytotoxicity Cell growth (CC50)) is more than 80 µM; in the series on Vero cells [9] (African green monkey) it was 59.1 µM.
Compound `O=CCNC(=O)[C@@H](Cc1c[nH]cn1)NC(=O)[C@H](Cc1c[nH]cn1)NC(=O)C1Cc2ccccc2CN1` (stereo partly drawn) [TRIP 41] (H-[ξTic]H[dH]G-aldehyde) gave a half-inhibitory concentration (IC50) in series [7] of more than 425 µM.
In series [7], `CC(C)C[C@H](C=O)NC(=O)[C@H](Cc1ccccc1)NC(=O)C1Cc2ccccc2CN1` (stereo partly drawn) [TRIP 3] (H-[ξTic]-Phe-[dL]-aldehyde) had a 50% inhibitory concentration (IC50) of more than 425 µM.
With `CC(=O)NCC(=O)N[C@H](Cc1ccccc1)C(=O)N[C@H](C=O)Cc1c[nH]cn1` [TRIP 5] (Ac-Gly-[dF]-His-aldehyde), the concentration for a half-maximal effect (EC50) is more than 100 µM with TK^− VZV strain 07-1 [1], more than 100 µM in series [2], more than 20 µM in [3] and more than 100 µM with TK^+ VZV strain OKA [5]. The same compound displayed a CC50 in “in vitro” of more than 100 µM. Further, the “Cytotoxicity Cell morphology (MCC)” value in [4] (Table 3 (HCMV experiment)) is on record as 100 μM; in [4] (Table 4 (VZV experiment)) it was more than 100 μM. Further, half-maximal inhibition in [7] (IC50) required 2.51 ± 0.24 µM. The compound also came in with an equilibrium dissociation constant (Kd) in [7] of 1.26 ± 0.12 µM.

These data come from patent US20240368232A1, “ANTIVIRAL LARAZOTIDE DERIVATIVES” (priority 2021, published 2024).
